Paper PMC12418948, “Intranasal Administration of KCNN2 Blocking Peptide Improves Deficits in Cognitive Flexibility in Mouse Model of Fetal Alcohol Spectrum Disorders” (International Journal of Neuropsychopharmacology, 2025)
Entries after “also recorded” stand apart in the source; their conditions may differ. Positions of bridges follow the written chain, without caps; N, C: chain ends. Non-standard residues stand in square brackets, D forms with d. Residues, ends and D or L forms follow the SMILES beside them. Dab = NCC[C@H](N)C(=O)O

How the values were obtained:
rat = tested on: rat; parameters: method as in 2 sources, one per row (each row's own in cited_ref): ref 82 = [82]; PMID 15985330; doi:10.1016/j.neulet.2005.05.050; 82. Deschaux O , Bizot JC . Apamin produces selective improvements of learning in rats . Neurosci Lett. 2005; 386 : 5 – 8 . 10.1016/j.neulet.2005.05.050 15985330 ||| ref 26, 82, 83 = [26]; PMID 18561910; doi:10.1016/j.ejphar.2008.05.019; 26. Mpari B , Sreng L , Regaya I , Mourre C . Small-conductance Ca(2+)-activated K(+) channels: heterogeneous affinity in rat brain structures and cognitive modulation by specific blockers . Eur J Pha || [82]; PMID 15985330; doi:10.1016/j.neulet.2005.05.050; 82. Deschaux O , Bizot JC . Apamin produces selective improvements of learning in rats . Neurosci Lett. 2005; 386 : 5 – 8 . 10.1016/j.neulet.2005.05.050 15985330 || [83]; PMID 9148239; doi:10.1016/s0304-3940(97)13367-5; 83. Deschaux O , Bizot JC , Goyffon M . Apamin improves learning in an object recognition task in rats . Neurosci Lett. 1997; 222 : 159 – 162 . 10.1016/s0304-3940(97)13367-5 9148239; conditions: cited from earlier work
[1] = tested on: Jurkat (clone E6-1) cells; assay: ATP cell viability (cytotoxicity) assay, CellTiter-Glo 2.0; type: cell-based, human
Experimental: Potential cytotoxicity of Lei-Dab7 was assessed by an ATP detection assay. Jurkat (clone E6-1) cells were used as they express KCNN2 channels constitutively and have been used to assess the cytotoxicity of compounds that block KCNN2.[37]^,[38] After recovery from cryopreservation, cells were plated into V-bottom, 96-well plates (2 × 10^4 cells per well), and the compound (Lei-Dab7) or control (negative control: media alone or 10% PBS in media; positive control: approximately 1% sodium dodecyl sulfate in media) was added into the culture media. After incubation for 24 hours, cells were assessed for viability using a CellTiter-Glo 2.0 kit (Promega, WI). Briefly, CellTiter-Glo 2.0 reagent was thawed and warmed to approximately 22°C, then mixed by gentle inversion. Once thoroughly mixed, 100 μL of reagent was distributed into each well, and the plates were gently mixed for approximately 2 minutes on an orbital shaker for cell lysis. The plates were then incubated for approximately10 minutes at room temperature to stabilize the luminescent signal. The amount of light produced from each well was quantified using a Cytation 5 plate reader (BioTek, VT). Cell viability was calculated as a percentage of the mean of the negative control […] for each well. […]

human KCNN2 = human KCNN2 (Homo sapiens, UniProt Q9H2S1); assay: Thallium flux assay, KCNN2 channel block; type: cell-based
Sequence of human KCNN2 (Q9H2S1 whole entry): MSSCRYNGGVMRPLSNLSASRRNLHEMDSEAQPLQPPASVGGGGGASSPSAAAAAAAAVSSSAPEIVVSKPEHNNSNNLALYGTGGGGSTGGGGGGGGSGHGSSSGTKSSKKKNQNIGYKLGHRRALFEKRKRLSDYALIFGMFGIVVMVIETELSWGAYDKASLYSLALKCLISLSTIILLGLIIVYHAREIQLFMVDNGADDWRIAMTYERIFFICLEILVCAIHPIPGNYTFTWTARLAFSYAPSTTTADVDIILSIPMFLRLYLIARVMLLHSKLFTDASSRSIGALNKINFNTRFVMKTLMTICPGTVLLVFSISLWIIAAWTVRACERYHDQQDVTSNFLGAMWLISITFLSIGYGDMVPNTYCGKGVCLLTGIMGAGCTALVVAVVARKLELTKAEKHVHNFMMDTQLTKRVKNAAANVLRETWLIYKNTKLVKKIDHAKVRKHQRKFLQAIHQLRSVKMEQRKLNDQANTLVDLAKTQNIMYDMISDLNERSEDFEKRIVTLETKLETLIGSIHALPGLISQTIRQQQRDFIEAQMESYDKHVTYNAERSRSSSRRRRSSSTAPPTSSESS
Experimental: The effect of tamapin and Lei-Dab7 to block the KCNN2 channel was assessed by the thallium flux (potassium ion surrogate) assay using FLIPR Potassium Assay KIT (Molecular Devices, CA) and a FLIPR TETRA fluorescence imaging plate reader (Molecular Devices, CA). Human embryonic kidney (HEK) 293 cell line stably expressing human KCNN2 (Charles River, MA) were plated on BioCoat Poly-D-Lysine 384-well Black/Clear Plates (BD Biosciences, NJ) at 15 000 to 30 000 cells per well and incubated at 37°C overnight or until cells form near confluent monolayer. A baseline fluorescence was recorded during the pre-incubation period, followed by activation in the stimulus buffer (K^+-free buffer with 5 mM Tl^+). The effects of tamapin and Lei-Dab7 on KCNN2 to inhibit KCNN2 channel were evaluated at 4 different concentrations (n = 4) each, based on fluorescence changes due to the treatments. The signal elicited by the respective positive control agonist [1 μM A23187 (Tocris, UK)] was set to 0% inhibition, and the signal in the presence of the respective positive control antagonists [3 μM UCL1684 (Tocris, UK)] was set to 100% inhibition. The IC50 values were defined as the concentration at which the percent inhibition equals 50.
To determine the dose of Lei-Dab7 to be tested, we compared the effect of Lei-Dab7 and tamapin in blocking human KCNN2 expressed in HEK293 cells using a thallium-based potassium ion channel assay. […] Based on the effective dose of tamapin in mitigating motor skill–learning deficits in PAE mice (15 μg/kg body weight via i.p.)[17] and higher brain uptake of therapeutics by intranasal delivery than by i.p. delivery, we chose a dose of 3.0 μg/kg body weight to test the effect of intranasal administration of Lei-Dab7.
Supplementary Figure 3. Concentration-response relationships of Lei-Dab7 and Tamapin on the Inhibition of KCNN2 channels. (A, B) The concentration-response relationships of Lei-Dab7 (A) and Tamapin (B) on the inhibition of KCNN2 (SK2) channels examined by the thallium flux assay are presented. […]

Compound: CC[C@H](C)[C@@H]1NC(=O)[C@@H]2CSSC[C@H](NC(=O)[C@H](Cc3ccccc3)NC(=O)[C@H](C)N)C(=O)N[C@@H](CC(N)=O)C(=O)N[C@@H](CC(C)C)C(=O)N[C@@H](CCCNC(=N)N)C(=O)N[C@@H](CCN)C(=O)N[C@H]3CSSC[C@H](NC(=O)[C@H](CCCCN)NC(=O)[C@H](CC(=O)O)NC(=O)CNC1=O)C(=O)N[C@@H](CCC(=O)O)C(=O)N[C@H](C(=O)N[C@H](C(=O)N[C@@H](CCCCN)C(=O)N[C@@H](Cc1c[nH]cn1)C(N)=O)C(C)C)CSSC[C@H](NC(=O)[C@H](CO)NC(=O)[C@H](CC(C)C)NC(=O)[C@H](CCC(N)=O)NC3=O)C(=O)N[C@@H](CCCNC(=N)N)C(=O)N[C@@H](CO)C(=O)N[C@@H](CC(C)C)C(=O)NCC(=O)N[C@@H](CC(C)C)C(=O)N[C@@H](CC(C)C)C(=O)NCC(=O)N[C@@H](CCCCN)C(=O)N2 [Lei-Dab7, Leiurotoxin-1 Dab7] (H-AFCNLR[Dab]CQLSCRSLGLLGKCIGDKCECVKH-NH2; disulfide 3-21, 8-26, 12-28)
- negative effects on learning in rats (rat): no negative effects
- cytotoxicity ([1]; 24-hour culture, ATP cell viability assay, even as high as at 100 μM): did not show any cytotoxicity
- cytotoxicity (summary wording) ([1]; in vitro, abstract/introduction wording): negligible cytotoxicity; also recorded: no detectable cytotoxicity
- IC50 (human KCNN2; HEK293 stably expressing human KCNN2, thallium flux, FLIPR Potassium Assay Kit, FLIPR TETRA, 4 concentrations, n = 4, 0% = 1 μM A23187, 100% = 3 μM UCL1684): 720 nM
- IC50 of Lei-Dab7 relative to tamapin (times higher) (human KCNN2; ratio of IC50 Lei-Dab7 to IC50 tamapin, human KCNN2 in HEK293): > 10 times
